Data reported in PubChem BioAssay (NCI).
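All cell lines were grown in 96-well plates and treated with compound for 48 hours. Here, GI50 denotes the concentration required for 50% inhibition of growth. TGI: concentration producing complete growth inhibition.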

How the values were obtained:
Assay in all cases: growth of human tumour cells (NCI), 48 h
CAKI-1 renal = test system: CAKI-1 renal
HCC-2998 colon = test system: HCC-2998 colon
MCF7 breast = test system: MCF7 breast
MDA-N = test system: MDA-N
OVCAR-3 ovarian = test system: OVCAR-3 ovarian
SF-295 CNS = test system: SF-295 CNS
SK-MEL-28 melanoma = test system: SK-MEL-28 melanoma
BT-549 breast = test system: BT-549 breast

SMILES | TGI (CAKI-1 renal) [µM] | TGI (HCC-2998 colon) [µM] | TGI (MCF7 breast) [µM] | TGI (MDA-N) [µM] | TGI (OVCAR-3 ovarian) [µM] | TGI (SF-295 CNS) [µM] | TGI (SK-MEL-28 melanoma) [µM] | TGI (BT-549 breast) [µM] | GI50 (BT-549 breast) [µM] | GI50 (CAKI-1 renal) [µM] | GI50 (HCC-2998 colon) [µM] | GI50 (MCF7 breast) [µM] | GI50 (OVCAR-3 ovarian) [µM] | GI50 (SF-295 CNS) [µM] | GI50 (SK-MEL-28 melanoma) [µM]
COc1cc([C@@H]2c3cc(O)c(OC)cc3C=C(C(N)=O)[C@H]2C(N)=O)ccc1O | > 100 | > 100 | > 100 | > 100 | > 100 | > 100 | > 100 |  |  |  |  |  |  |  | 
CSCCC(NC(=O)Cc1ccc(C(=O)c2ccccc2)cc1)C(=O)O (stereo not drawn) | > 100 | > 100 | > 100 | > 100 | > 100 | > 100 | > 100 | > 100 |  |  |  |  |  |  | 
CC1OC(OC2C(OC(=O)[C@@H]3CC(C)(C)C[C@H]4C5=CC[C@@H]6[C@@]7(C)C[C@H](O)[C@H](OC8OC(CO)C(O)C(O)C8O)[C@@](C)(CO)[C@@H]7[C@H](O)C[C@@]6(C)[C@]5(C)CC[C@@]34C)OCC(O)C2O)C(O)C(O)C1O (stereo partly drawn) | > 7.5 | > 7.5 | > 7.5 | > 7.5 | > 7.5 | > 7.5 |  | > 7.5 |  |  |  |  |  |  | 
COC(=O)c1cnn2c1n[n+]([O-])c1ccccc12 | > 100 |  | > 100 | > 100 | > 100 | > 100 | > 100 | > 100 |  |  |  |  |  |  | 
COc1cccc(NC(=O)C(C#N)=C(SC)SC)c1 | > 100 | > 100 | > 100 | > 100 |  | > 100 | > 100 | > 100 |  |  |  |  |  |  | 
COc1ccc2oc(=N)c(C(=O)Nc3ccccn3)cc2c1 | > 100 | > 100 | > 100 |  | > 100 |  | > 100 | > 100 |  |  |  |  |  |  | 
Fc1ccccc1C1SCc2nc3cc4ccccc4cc3n21 (stereo not drawn) | > 100 | > 100 | > 100 | > 100 | > 100 | > 100 | > 100 | > 100 |  |  |  |  |  |  | 
COC(=O)c1c(O)ccc2c1C1(Cc3ccccc3C1=O)C(O)O2 (stereo not drawn) | 61.8 | 69.9 | > 100 | 28.7 | 43.9 | > 100 | > 100 | 37 |  |  |  |  |  |  | 
O=c1onc2c3ccccc3ncn12 | > 100 | > 100 | > 100 |  | > 100 | > 100 | > 100 | > 100 |  |  |  |  |  |  | 
Cc1n[nH]c(=O)n1/N=C/c1ccc([N+](=O)[O-])o1 | 19.9 | 40.7 | > 100 |  | 17.8 | > 100 | 28.3 | 36.6 |  |  |  |  |  |  | 
CC1OC(O[C@H]2/C=C/C=C/C=C/C=C/C=C/C=C/C=C/[C@H](C)[C@@H](O)[C@@H](C)[C@H](C)OC(=O)CC(O)CC(O)CCC(O)C(O)CC(O)C[C@]3(O)C[C@H](O)C(C(=O)O)C(C2)O3)C(O)[C@H](N)C1O (stereo partly drawn) | 11.7 | 18.7 | 19.7 |  | 5.35 | 38 | 3.98 | 30.4 | 13.9 | 3.16 | 5.36 | 5.02 | 2.39 | 18.6 | 2.07
O=C(O)CNC(=O)c1c2ccccc2nc2ccccc12 | > 100 | > 100 | > 100 |  | > 100 | > 100 | > 100 | > 100 |  |  |  |  |  |  | 
COC(=O)c1c(OC(C)=O)ccc2c1c1c(OC(C)=O)c3ccccc3c(OC(C)=O)c1n2Cc1ccccc1 | 27.9 | 5.22 | > 50 | 41.1 | 3.52 | 10.9 | 33.5 | 28.8 |  |  |  |  |  |  | 
OC1(c2ccccc2)CSC2=Nc3ccccc3C3CCN1N23 (stereo not drawn) | 72.6 | 88.7 | 46 | 27.2 | > 100 | 33.8 | 11.3 | 57.4 |  |  |  |  |  |  | 
Nc1nc(Cl)c(N)c(NCC2(CO)CC(CCCc3ccccc3)C2)n1 (stereo not drawn) | > 100 | > 100 | > 85.7 | > 100 | > 67.2 | > 59.5 | > 100 | > 81.8 |  |  |  |  |  |  | 
CCNC1=C(NC(=O)CC)C(=O)c2ccccc2C1=O |  | > 100 | > 100 | > 100 | > 100 | > 100 | > 100 | > 100 |  |  |  |  |  |  | 
CN(CCCNC(=O)c1nn(-c2ccc(Cl)cc2Cl)c2c1Cc1ccccc1-2)CCCNC(=O)c1nn(-c2ccc(Cl)cc2Cl)c2c1Cc1ccccc1-2 | 2.95 | 3 |  | 3.17 | 3.09 | 3.15 | 3.3 | 3.18 |  |  |  |  |  |  | 
c1ccc(CSCCc2ccncc2)cc1 |  | > 100 | > 100 | > 100 | > 100 | > 100 | > 100 | > 100 |  |  |  |  |  |  | 
O=C(CC(=O)Nc1ccccc1)N/N=C/c1cc(N=Nc2ccc(Br)cc2)ccc1O | > 10 | > 10 | > 10 | > 10 |  |  | > 10 | > 10 |  |  |  |  |  |  | 
CC1=NN(C(=O)CSc2nc3ccc(I)cc3c(=O)n2Cc2ccccc2)C(=O)C1 | > 100 | > 100 | 61.3 | > 100 | 54.9 | 63.9 | > 100 |  |  |  |  |  |  |  | 
O=C(CSC1=NCCN1)Nc1ccccc1 | > 100 | 63.1 |  | 59 | 51.4 | > 100 | 62.6 | 59.5 |  |  |  |  |  |  | 
O=C1NC(=S)N(c2ccccc2)C1=O | > 100 | > 100 |  |  |  | > 100 | > 100 |  |  |  |  |  |  |  | 
CCN(CC)CCNCc1cc(Cl)cc2c1OCOC2 | > 10 | > 10 | > 10 | > 10 | > 10 | > 10 | > 10 |  |  |  |  |  |  |  | 
O=C(/C=C/c1csc(-c2ccccc2)n1)NCc1ccc(C(=O)NCc2ccccc2)cc1 | > 100 | > 100 | > 100 |  | > 100 | > 100 | > 100 | > 100 |  |  |  |  |  |  | 
CC(C)=C/C=C1/CS(=O)(=O)C=C1C | > 100 | > 100 | > 100 | > 100 | > 100 | > 100 | > 100 |  |  |  |  |  |  |  | 
